The values below come from patent publication US20080306076A1, “MODULATION OF CHEMOSENSORY RECEPTORS AND LIGANDS ASSOCIATED THEREWITH” (SENOMYX, INC., priority 2007, published 2008).

Residue numbers refer to the chain shown, from its start.

Experiment [1] addresses T1, hT1R1 Y220A (Homo sapiens, UniProt Q7RTX1, Y220A).
T1 construct: expressed in transfected cells; host or cells: HEK293, transient transfection
T1 sequence (Q7RTX1 21-841 Y220A): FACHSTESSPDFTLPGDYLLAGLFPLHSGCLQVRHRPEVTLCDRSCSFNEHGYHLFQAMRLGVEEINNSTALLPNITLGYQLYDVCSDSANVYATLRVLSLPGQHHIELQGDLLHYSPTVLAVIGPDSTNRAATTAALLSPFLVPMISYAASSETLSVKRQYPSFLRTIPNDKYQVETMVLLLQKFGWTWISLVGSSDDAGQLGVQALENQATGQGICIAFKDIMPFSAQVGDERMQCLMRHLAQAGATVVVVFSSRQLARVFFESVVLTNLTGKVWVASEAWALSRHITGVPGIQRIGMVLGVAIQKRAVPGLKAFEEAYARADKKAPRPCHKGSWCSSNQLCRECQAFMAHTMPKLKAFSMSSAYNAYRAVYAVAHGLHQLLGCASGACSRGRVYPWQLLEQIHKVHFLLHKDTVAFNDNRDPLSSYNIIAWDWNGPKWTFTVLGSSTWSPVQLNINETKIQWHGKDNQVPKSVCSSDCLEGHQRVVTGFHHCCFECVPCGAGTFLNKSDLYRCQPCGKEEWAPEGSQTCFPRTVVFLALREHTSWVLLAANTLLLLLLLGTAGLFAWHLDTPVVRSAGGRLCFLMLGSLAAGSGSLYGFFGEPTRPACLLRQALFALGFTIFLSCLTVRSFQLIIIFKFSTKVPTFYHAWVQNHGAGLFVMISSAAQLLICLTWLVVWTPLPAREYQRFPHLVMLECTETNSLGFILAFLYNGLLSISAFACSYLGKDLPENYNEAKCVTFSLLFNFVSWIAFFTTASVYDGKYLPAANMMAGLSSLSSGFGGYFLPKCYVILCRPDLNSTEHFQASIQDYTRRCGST
T1 sequence (Q923K1 21-858 partner): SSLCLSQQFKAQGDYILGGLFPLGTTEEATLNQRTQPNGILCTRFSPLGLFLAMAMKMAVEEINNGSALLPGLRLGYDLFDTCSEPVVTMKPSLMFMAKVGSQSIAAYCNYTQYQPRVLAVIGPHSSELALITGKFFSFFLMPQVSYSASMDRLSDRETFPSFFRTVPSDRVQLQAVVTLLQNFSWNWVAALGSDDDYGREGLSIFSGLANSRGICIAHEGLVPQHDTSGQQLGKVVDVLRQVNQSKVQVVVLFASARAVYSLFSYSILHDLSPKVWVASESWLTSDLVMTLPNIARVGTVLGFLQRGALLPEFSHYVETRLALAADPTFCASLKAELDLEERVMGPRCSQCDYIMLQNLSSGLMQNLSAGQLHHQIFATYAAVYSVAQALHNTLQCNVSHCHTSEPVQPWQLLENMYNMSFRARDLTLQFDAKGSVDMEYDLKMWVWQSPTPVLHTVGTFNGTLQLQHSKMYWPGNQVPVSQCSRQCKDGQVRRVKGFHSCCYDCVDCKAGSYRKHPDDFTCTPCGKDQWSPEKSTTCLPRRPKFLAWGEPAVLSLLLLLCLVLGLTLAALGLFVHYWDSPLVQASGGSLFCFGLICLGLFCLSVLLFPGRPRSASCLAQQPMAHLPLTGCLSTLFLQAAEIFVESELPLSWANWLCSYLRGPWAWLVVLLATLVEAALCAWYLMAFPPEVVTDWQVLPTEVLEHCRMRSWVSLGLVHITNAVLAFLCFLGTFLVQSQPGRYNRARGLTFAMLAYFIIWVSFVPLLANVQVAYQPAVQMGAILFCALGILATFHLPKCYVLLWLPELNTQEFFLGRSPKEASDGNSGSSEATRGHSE
As to the kind of experiment: Mutagenesis study, hT1R1 mutant Y220A. To be noted: Y220 mutant, FIG. 11. The experiment is classed as cell-based. An excerpt:
(§1) In order to further define the interaction sites of umami stimuli, we performed site-directed mutagenesis on human T1R1 VFT. The mutagenesis was done using the routine PCR-based method. […] were transiently transfected into HEK293 cell together with the rat T1R3 wild type cDNA, and the transfected cells were characterized using an automated FLIPR machine or a calcium imaging system as described in our previous patent applications.

For experiment [2], the target named is T2, hT1R1 E301A (Homo sapiens, UniProt Q7RTX1, E301A).
T2 construct: expressed in transfected cells; host or cells: HEK293, transient transfection
T2 sequence (Q7RTX1 21-841 E301A): T1 sequence (Q7RTX1 21-841 Y220A) with A200Y, E281A
T2 sequence (Q923K1 21-858 partner): T1 sequence (Q923K1 21-858 partner)
As to the kind of experiment: Mutagenesis study, hT1R1 mutant E301A. The experiment is classed as cell-based. The conditions noted are these: E301 mutant, FIG. 11.
Text: as §1

With `N[C@@H](CCC(=O)O)C(=O)O` [L-Glu, L-glutamate], the “activity against L-Glu” value in experiment [1] and in experiment [2] was “significant reduced activity” throughout.
